Measured values published in PubChem BioAssay (NCI).
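Five compound concentrations were applied to cells in 96-well plates for 48 hours; endpoints were derived by simple linear interpolation of the resulting dose-response curve. GI50 = concentration required for 50% inhibition of growth. TGI: concentration producing complete growth inhibition.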

Columns and labels:
Experiment in all cases: NCI tumour cell line growth inhibition, 48 h
MDA-MB-231 breast = tested on: MDA-MB-231 breast
RPMI-8226 leukemia = tested on: RPMI-8226 leukemia
NCI-H522 lung = tested on: NCI-H522 lung
NCI-H226 lung = tested on: NCI-H226 lung
K-562 leukemia = tested on: K-562 leukemia
MCF7 breast = tested on: MCF7 breast
TK-10 renal = tested on: TK-10 renal
HCT-15 colon = tested on: HCT-15 colon
OVCAR-5 ovarian = tested on: OVCAR-5 ovarian
SW-620 colon = tested on: SW-620 colon
KM12 colon = tested on: KM12 colon
T-47D breast = tested on: T-47D breast
DU-145 prostate = tested on: DU-145 prostate
HOP-62 NSCLC = tested on: HOP-62 NSCLC
SK-MEL-2 melanoma = tested on: SK-MEL-2 melanoma
CAKI-1 renal = tested on: CAKI-1 renal
UO-31 renal = tested on: UO-31 renal
COLO 205 colon = tested on: COLO 205 colon
HOP-92 NSCLC = tested on: HOP-92 NSCLC
SF-539 CNS = tested on: SF-539 CNS
MDA-MB-435 = tested on: MDA-MB-435
OVCAR-3 ovarian = tested on: OVCAR-3 ovarian
NCI/ADR-RES ovarian = tested on: NCI/ADR-RES ovarian
UACC-257 melanoma = tested on: UACC-257 melanoma
RXF 393 renal = tested on: RXF 393 renal
NCI-H460 lung = tested on: NCI-H460 lung
MALME-3M melanoma = tested on: MALME-3M melanoma
BT-549 breast = tested on: BT-549 breast
HS 578T breast = tested on: HS 578T breast
A498 renal = tested on: A498 renal
SNB-75 CNS = tested on: SNB-75 CNS
U251 CNS = tested on: U251 CNS
NCI-H23 lung = tested on: NCI-H23 lung
A549 NSCLC = tested on: A549 NSCLC
ACHN renal = tested on: ACHN renal
OVCAR-8 ovarian = tested on: OVCAR-8 ovarian
MOLT-4 leukemia = tested on: MOLT-4 leukemia
SR leukemia = tested on: SR leukemia
HCT-116 colon = tested on: HCT-116 colon
SF-268 CNS = tested on: SF-268 CNS
SK-OV-3 ovarian = tested on: SK-OV-3 ovarian
M14 melanoma = tested on: M14 melanoma
HT29 colon = tested on: HT29 colon
SK-MEL-5 melanoma = tested on: SK-MEL-5 melanoma
SK-MEL-28 melanoma = tested on: SK-MEL-28 melanoma
PC-3 prostate = tested on: PC-3 prostate
LOX IMVI melanoma = tested on: LOX IMVI melanoma
786-0 renal = tested on: 786-0 renal
OVCAR-4 ovarian = tested on: OVCAR-4 ovarian
HL-60(TB) leukemia = tested on: HL-60(TB) leukemia
CCRF-CEM leukemia = tested on: CCRF-CEM leukemia
SNB-19 CNS = tested on: SNB-19 CNS
HCC-2998 colon = tested on: HCC-2998 colon
SN12C renal = tested on: SN12C renal
UACC-62 melanoma = tested on: UACC-62 melanoma
IGROV1 ovarian = tested on: IGROV1 ovarian

SMILES: COc1ccc(-c2ccc(-c3ccc(C(=N)N)cn3)o2)cc1
- GI50 (MDA-MB-231 breast): 3.34 µM
- TGI (MDA-MB-231 breast): 15.3 µM
- GI50 (RPMI-8226 leukemia): 2.78 µM
- TGI (RPMI-8226 leukemia): 10.1 µM
- GI50 (NCI-H522 lung): 6.8 µM
- TGI (NCI-H522 lung): 20.7 µM
- GI50 (NCI-H226 lung): 12.8 µM
- TGI (NCI-H226 lung): 29.5 µM
- GI50 (K-562 leukemia): 3.97 µM
- TGI (K-562 leukemia): 13.5 µM
- GI50 (MCF7 breast): 3.17 µM
- TGI (MCF7 breast): 13.4 µM
- GI50 (TK-10 renal): 10.7 µM
- TGI (TK-10 renal): 22.7 µM
- GI50 (HCT-15 colon): 4.62 µM
- TGI (HCT-15 colon): 17.7 µM
- GI50 (OVCAR-5 ovarian): 10.9 µM
- TGI (OVCAR-5 ovarian): 23.7 µM
- GI50 (SW-620 colon): 4.05 µM
- TGI (SW-620 colon): 16 µM
- GI50 (KM12 colon): 4.41 µM
- TGI (KM12 colon): 15.5 µM
- GI50 (T-47D breast): 5.13 µM
- TGI (T-47D breast): 21 µM
- GI50 (DU-145 prostate): 11.3 µM
- TGI (DU-145 prostate): 24.7 µM
- GI50 (HOP-62 NSCLC): 10.5 µM
- TGI (HOP-62 NSCLC): 22.6 µM
- GI50 (SK-MEL-2 melanoma): 4.91 µM
- TGI (SK-MEL-2 melanoma): 15.9 µM
- GI50 (CAKI-1 renal): 6.79 µM
- TGI (CAKI-1 renal): 20.7 µM
- GI50 (UO-31 renal): 2.68 µM
- TGI (UO-31 renal): 17.3 µM
- GI50 (COLO 205 colon): 1.82 µM
- TGI (COLO 205 colon): 3.68 µM
- GI50 (HOP-92 NSCLC): 1.31 µM
- TGI (HOP-92 NSCLC): 6.4 µM
- GI50 (SF-539 CNS): 4.74 µM
- TGI (SF-539 CNS): 17.8 µM
- GI50 (MDA-MB-435): 2.18 µM
- TGI (MDA-MB-435): 4.97 µM
- GI50 (OVCAR-3 ovarian): 8.9 µM
- TGI (OVCAR-3 ovarian): 21.6 µM
- GI50 (NCI/ADR-RES ovarian): 14.1 µM
- TGI (NCI/ADR-RES ovarian): 30.7 µM
- GI50 (UACC-257 melanoma): 2.18 µM
- TGI (UACC-257 melanoma): 4.69 µM
- GI50 (RXF 393 renal): 7.01 µM
- TGI (RXF 393 renal): 20 µM
- GI50 (NCI-H460 lung): 3.69 µM
- TGI (NCI-H460 lung): 14 µM
- GI50 (MALME-3M melanoma): 3.25 µM
- TGI (MALME-3M melanoma): 7.32 µM
- GI50 (BT-549 breast): 10.7 µM
- TGI (BT-549 breast): 22.8 µM
- GI50 (HS 578T breast): 10.9 µM
- TGI (HS 578T breast): 36.7 µM
- GI50 (A498 renal): 12.8 µM
- TGI (A498 renal): 26.3 µM
- GI50 (SNB-75 CNS): 10.5 µM
- TGI (SNB-75 CNS): 22.5 µM
- GI50 (U251 CNS): 4.7 µM
- TGI (U251 CNS): 17.4 µM
- GI50 (NCI-H23 lung): 11.6 µM
- TGI (NCI-H23 lung): 25.5 µM
- GI50 (A549 NSCLC): 5.1 µM
- TGI (A549 NSCLC): 18.7 µM
- GI50 (ACHN renal): 6.56 µM
- TGI (ACHN renal): 19.6 µM
- GI50 (OVCAR-8 ovarian): 11.3 µM
- TGI (OVCAR-8 ovarian): 31.2 µM
- GI50 (MOLT-4 leukemia): 4.4 µM
- TGI (MOLT-4 leukemia): 15.5 µM
- GI50 (SR leukemia): 3.11 µM
- TGI (SR leukemia): 10.3 µM
- GI50 (HCT-116 colon): 3.26 µM
- TGI (HCT-116 colon): 12.9 µM
- GI50 (SF-268 CNS): 11.2 µM
- TGI (SF-268 CNS): 25.3 µM
- GI50 (SK-OV-3 ovarian): 10.2 µM
- TGI (SK-OV-3 ovarian): 21.8 µM
- GI50 (M14 melanoma): 2.12 µM
- TGI (M14 melanoma): 4.68 µM
- GI50 (HT29 colon): 3.4 µM
- TGI (HT29 colon): 11.1 µM
- GI50 (SK-MEL-5 melanoma): 3.43 µM
- TGI (SK-MEL-5 melanoma): 14.1 µM
- GI50 (SK-MEL-28 melanoma): 8.23 µM
- TGI (SK-MEL-28 melanoma): 20.9 µM
- GI50 (PC-3 prostate): 4.18 µM
- TGI (PC-3 prostate): 18 µM
- GI50 (LOX IMVI melanoma): 2.58 µM
- TGI (LOX IMVI melanoma): 6.86 µM
- GI50 (786-0 renal): 6.02 µM
- TGI (786-0 renal): 18.8 µM
- GI50 (OVCAR-4 ovarian): 10.4 µM
- TGI (OVCAR-4 ovarian): 22.1 µM
- GI50 (HL-60(TB) leukemia): 2.14 µM
- TGI (HL-60(TB) leukemia): 5.7 µM
- GI50 (CCRF-CEM leukemia): 3.2 µM
- TGI (CCRF-CEM leukemia): 13.7 µM
- GI50 (SNB-19 CNS): 11.7 µM
- TGI (SNB-19 CNS): 24.6 µM
- GI50 (HCC-2998 colon): 2.45 µM
- TGI (HCC-2998 colon): 5.71 µM
- GI50 (SN12C renal): 8.01 µM
- TGI (SN12C renal): 22.5 µM
- GI50 (UACC-62 melanoma): 10.3 µM
- TGI (UACC-62 melanoma): 22.9 µM
- GI50 (IGROV1 ovarian): 5.29 µM
- TGI (IGROV1 ovarian): 19 µM
